Source: paper PMC6789111, “Crossing the blood-brain-barrier with nanoligand drug carriers self-assembled from a phage display peptide” (Nature Communications, 2019)
Where two headings read alike, the source gives them in different places. Peptide text beside a SMILES is read from it. * marks the point of attachment. 5FAM = O=C1OC2(c3ccc(O)cc3Oc3cc(O)ccc32)c2ccc(C(=O)*)cc21

Tests used:
[1] = mouse, in vivo, iv
Protocol: In some experiments, animals were transcardially perfused with 10 mL 0.9% (w/v) saline at a rate of 2 mL min^−1 through the left ventricle to remove the blood from the brain, followed by 20 mL 4% (v/v) paraformaldehyde in phosphate buffered saline (PBS, pH = 7.4). The brain was removed and post-fixed overnight in 4% (v/v) paraformaldehyde followed by dehydration with 30% (w/v) sucrose solution in PBS at 4 °C. Frozen sections were cut on a cryostat (Thermo fisher, USA). […] To visualise neurons, microglial and astrocytes, sections were first stained with antibodies against Tuj1 (1:500), Iba1 (1:300) and GFAP (1:300), respectively, and then with donkey anti-mouse Alexa Fluor®555 (1:1000 dilution) secondary antibody. DAPI staining was performed to visualise cell nuclei.

hCMEC/D3 cells = assay: Uptake with internalisation inhibitors; conditions: 37 °C
Protocol: The medium was then removed and replaced with a fresh medium containing NLCs and the corresponding inhibitor. After 8 h of incubation at 37 °C, cells were washed three times with cell medium and analysed by FACS. Cell viability at the end of each experiment was >90% as determined by Trypan Blue exclusion test. The following inhibitors were used: 2-deoxy-D-glucose (1 mM)/sodium azide (1 mM) as energy-dependent inhibitors, worthmanin (10 μM) as macropinocytosis inhibitor, chloropromazine (30 μM) as clathrin-dependent endocytosis inhibitor, N-ethylmaleimide (5 μM) as caveolae-dependent endocytosis and transcytosis inhibitor and indomethacin (200 μM) as caveolae-dependent endocytosis inhibitor.

TNF-α = conditions: Ave.
Protocol: Tissues were sectioned at a […] thickness.
Blood samples were collected for determination of red blood cell count, white blood cell count, haemoglobin, haematocrit, mean corpuscular volume, mean corpuscular haemoglobin, mean corpuscular haemoglobin concentration and platelet count (XFA6030, Perlong Medical Inc., China). Hippocampus was dissected out, rinsed in ice-cold PBS thoroughly, weighted and immediately frozen in liquid nitrogen. Tissues were cut into small pieces and homogenized in 1 mL ice-cold PBS with a glass homogeniser and sonicated with an ultrasonic cell disrupter to break the cell membranes. Homogenates were centrifuges for 5 min at 5,000 × g and supernatants were assayed immediately for quantitative determination of TNF-α, IL-6, IL-1β, Iba-1 and GFAP by corresponding ELISA kits, respectively in accordance with manufacturer’s instructions.

## CC[C@H](C)[C@H](NC(=O)[C@H](CC(N)=O)NC(=O)[C@H](Cc1c[nH]cn1)NC(=O)[C@@H](NC(=O)[C@@H]1CCCN1C(=O)[C@H](CCCNC(=N)N)NC(=O)[C@H](Cc1ccc(O)cc1)NC(=O)CNC(=O)[C@H](CS)NC(=O)c1ccc2c(c1)C(=O)OC21c2ccc(O)cc2Oc2cc(O)ccc21)C(C)C)C(=O)N[C@@H](CCCNC(=N)N)C(=O)NCC(=O)N[C@@H](Cc1c[nH]cn1)C(=O)N[C@@H](Cc1c[nH]c2ccccc12)C(=O)N[C@@H](C)C(=O)N1CCC[C@H]1C(=O)NCC(=O)O [FAM-CGY] (5FAM-CGYRPVHNIRGHWAPG-OH)
[1]
  association with brain parenchymal cells: neurons and microglial cells, but not with astrocytes
hCMEC/D3 cells; CPZ (chloropromazine 30 μM), 8 h, replicate 1
  Mean flouresence (%), uptake vs Control (no inhibitor): 50.26%
hCMEC/D3 cells; CPZ (chloropromazine 30 μM), 8 h, replicate 2
  Mean flouresence (%), uptake vs Control (no inhibitor): 42.26%
hCMEC/D3 cells; CPZ (chloropromazine 30 μM), 8 h, replicate 3
  Mean flouresence (%), uptake vs Control (no inhibitor): 56.45%
hCMEC/D3 cells; DOG+NaN3 (1 mM/1 mM), 8 h, replicate 2
  Mean flouresence (%), uptake vs Control (no inhibitor): 62.26%
hCMEC/D3 cells; DOG+NaN3 (1 mM/1 mM), 8 h, replicate 3
  Mean flouresence (%), uptake vs Control (no inhibitor): 36.09%
hCMEC/D3 cells; DOG+NaN3 (2-deoxy-D-glucose 1 mM/sodium azide 1 mM), 8 h, replicate 1
  Mean flouresence (%), uptake vs Control (no inhibitor): 44.27%
hCMEC/D3 cells; IMC (indomethacin 200 μM), 1 h pre-treatment + 8 h, FACS, FAM-CGY NLC 5 µM or Texas Red-transferrin 5 µg per well, replicate 1
  Mean flouresence (%), uptake vs Control (no inhibitor): 66.27%
hCMEC/D3 cells; IMC (indomethacin 200 μM), 8 h, replicate 2
  Mean flouresence (%), uptake vs Control (no inhibitor): 72.37%
hCMEC/D3 cells; IMC (indomethacin 200 μM), 8 h, replicate 3
  Mean flouresence (%), uptake vs Control (no inhibitor): 72.43%
hCMEC/D3 cells; NEM (N-ethylmaleimide 5 μM), 8 h, replicate 1
  Mean flouresence (%), uptake vs Control (no inhibitor): 56.24%
hCMEC/D3 cells; NEM (N-ethylmaleimide 5 μM), 8 h, replicate 2
  Mean flouresence (%), uptake vs Control (no inhibitor): 70.26%
hCMEC/D3 cells; NEM (N-ethylmaleimide 5 μM), 8 h, replicate 3
  Mean flouresence (%), uptake vs Control (no inhibitor): 66.59%
hCMEC/D3 cells; WOR (worthmanin 10 μM), 8 h, replicate 1
  Mean flouresence (%), uptake vs Control (no inhibitor): 73.57%
hCMEC/D3 cells; WOR (worthmanin 10 μM), 8 h, replicate 2
  Mean flouresence (%), uptake vs Control (no inhibitor): 75.56%
hCMEC/D3 cells; WOR (worthmanin 10 μM), 8 h, replicate 3
  Mean flouresence (%), uptake vs Control (no inhibitor): 60.92%
TNF-α; 4 h after i.v.
  TNF-α in hippocampus (Figure 6e): 13.40
TNF-α; 24 h after i.v. (LPS 24 h)
  TNF-α in hippocampus (Figure 6e): 12.87
TNF-α; 72 h after i.v.
  TNF-α in hippocampus (Figure 6e): 12.94
